From EP0340171A2, “Cyclodextrin complexes of 5-aminohexahydropyrimidine compounds” (WARNER-LAMBERT COMPANY, priority 1988, dated 1989)
“Also recorded” adds a separate entry of the source.

Key:
[1] = solubility in deionized water; assay type: physicochemical
Protocol: When complexed with beta-cyclodextrin the solubility increases to about 10 mg hexetidine (contained in about 43 mg of complex) in about 10 ml of water -- without the addition of any alcohol or any surfactant. This is an increase from about 0 to about 0.1% w/v in solubility. The complex, 43 mg, was dissolved in 10 ml of deionized water at about 50°C using vortexing. The complex, assayed by UV to be a 1:1 complex of hexetidine: beta-cyclodextrin, contains 10 mg of hexetidine in the 43 mg of complex, and therefore, a 0.1% w/v solution of hexetidine was made. The solution of the 43 mg of complex in 10 ml of water was clear.

[2] = cited from earlier work

CCCCC(CC)CN1CN(CC(CC)CCCC)CC(C)(N)C1 (centres unmarked) [hexetidine, 5-amino-1,3 bis(2-ethylhexyl)-5-methyl-hexahydropyrimidine]
solubility in water (in words) ([1]; 10 mg hexetidine, alone or as 43 mg of complex, in 10 ml of water): virtually insoluble in water; also recorded: did not dissolve
solubility (hexetidine in aqueous solution) ([1]; water, no ethanol and no surfactant): about 0 % w/v
solution of hexetidine in known in the art compositions ([2]; about 9.5% v/v ethanol and about 0.7% v/v of surfactant (e.g., TWEEN 80)): ~0.1 % w/v
solubility in ethanol ([2]; ethanol): soluble in ethanol
solubility in water ([2]; water): practically insoluble in water
